# Measurements: patent US8076094B2, “Phosphorylation of histone H3 at threonine 11—a novel epigenetic mark for transcriptional regulation” (Universitaetsklinixum Freiburg, priority 2007, dated 2011)
# “Also recorded” adds a separate entry of the source.
# Experiments:
# [1] = system: endogenous PRK1 and AR in LNCaP cells; assay: Western blot analysis of knockdown in LNCaP cells; type: cell-based
# From the text: (§1) To initiate our study, we analysed the effect of PRK1 knockdown on the expression of endogenous AR target genes.
# To determine whether PRK1 controls phosphorylation of H3T11 at promoters of AR-regulated genes in vivo, LNCaP cells were first transfected with either an unrelated control siRNA or a siRNA directed against PRK1, in the presence or absence of R1881, and then subjected to ChIP. Addition of ligand results in phosphorylation of H3T11 at the AREs of the PSA and KLK2 promoters (FIG. 2d, left panel). Androgen-induced phosphorylation at H3T11 is PRK1-dependent since it is blocked by knockdown of PRK1. […] To corroborate that androgen-induced phosphorylation of H3T11 is executed by PRK1, LNCaP cells were cultivated in the presence or absence of Ro318220 and subjected to ChIP.
# Experiments were performed as described^2. Western blots were decorated as indicated.
# [2] = system: PSA and KLK2 promoters in LNCaP cells; assay: Chromatin immunoprecipitation (ChIP) at AREs of PSA and KLK2 promoters in LNCaP cells; type: cell-based; conditions: for ligand-induced phosphorylation of H3T11 at AREs of PSA and KLK2 promoters: 1×10^−8 M R1881 45 min, FIG. 2d, e; for S5-P CTD pol II at the promoters of PSA and KLK2 / recruitment of RNA polymerase II (α-NTD pol II): Ro318220 1×10^−5 M, FIG. 3f, g
# Procedure: Chromatin Immunoprecipitation ChIP and Re-ChIP experiments were performed as described^5,9. LNCaP cells were cultured for 45 min (FIGS. 1c, 2d, 2e) or 210 min (FIG. 3a, b, f, g) in the presence or absence of 1×10^−8 M R1881 as indicated. Ro318220 (1×10^−5 M) was added to the LNCaP cells (FIG. 3b, g) 60 min before addition of R1881. Three days before harvesting, LNCaP cells were transfected with stealth RNAi (ctr: 5′-[…]-3′ (Sequence Protocol: 5) (SEQ ID NO: 5); PRK1: 5′-[…]-3′ (Sequence Protocol: 6) (SEQ ID NO: 6); Invitrogen) following the manufacturer's instructions. Immunoprecipitation was performed with specific antibodies (α-monoMeH3K9, α-diMeH3K9, α-triMeH3K9, α-acetyl-H3K9/K14, α-H3, α-AR (Upstate Biotechnology), α-S5-P CTD pol II, α-phosphoH3T11 (Abcam), α-NTD pol II (N-20, Santa Cruz), α-LSD1^5, α-JMJD2C^4, and α-PRK1) on protein A-Sepharose 4B (GE-Healthcare). For PCR, 1-5 μl out of 50 μl DNA extract was used. PCR primers for ARE I+II (PSA-459/-121), ARE III (PSA-4288/-3922), KLK2 (−343/-90), GAPDH, and U6 were described previously^5. Western Blot Analysis
# [3] = system: AR-dependent reporters in LNCaP cells; assay: AR-dependent reporter (luciferase) assay in LNCaP cells; type: cell-based; conditions: R1881, FIG. 5a, b
# Procedure: CV1 and LNCaP cells were cultured and transfected as described^2. The following amounts were transfected per well: 500 ng of MMTV-LUC, Probasin-LUC, or PSA-LUC; 25 ng of AR expression plasmid; 200 ng (FIG. 3e) or 400 ng (FIG. 3c, d) expression plasmids of LSD1 or JMJD2C, 150 ng PRK1 K644E, 1000 ng expression plasmid of miRNA-control, miRNA1-PRK1, or miRNA2-PRK1 (FIG. 5a). Cells were cultivated for 18 hours in the presence or absence of 1×10^−10 M R1881 (Sigma), 2.5×10^−6 M (FIG. 3d) or 4.5×10^−6 M (FIG. 3c) Ro318220 (Roche) as indicated. Luciferase activity was assayed as described^2. All experiments were repeated at least four times in duplicate.
# [4] = system: androgen-induced expression of endogenous AR target genes PSA and KLK2 in LNCaP cells; assay: Quantitative RT-PCR of endogenous AR target genes in LNCaP cells; type: cell-based; conditions: presence or absence of R1881, FIG. 1a, b
# Procedure: as §1
# Quantitative RT-PCR and statistical analysis were performed as described^5. The primers for GAPDH, PSA, and KLK2 were described previously^5.
# PRK1 = assay: In vitro kinase assay; type: biochemical
# Procedure: To understand how association of PRK1 and AR with chromatin results in increased gene expression, we tested whether PRK1 directly phosphorylates the N-terminal tail of histone H3. Myc-PRK1 and the flag-tagged kinase dead mutant PRK1 K644E^2 were immunoprecipitated from 293 cell lysates with an α-myc or an α-flag antibody, respectively (FIG. 6a, b), and incubated with bacterially expressed and purified GST-H3 1-44 or GST control protein. GST-H3 1-44 is phosphorylated by PRK1, but not by PRK1 K644E (FIG. 2a).
# In addition, we incubated nucleosomes purified from HeLa cells with recombinant PRK1 in the presence or absence of Ro318220. […] This phosphorylation is blocked by Ro318220 (FIG. 2c).
# The kinase assays were performed as described^11. 10 μg GST-tagged H3 proteins or 1 μg of nucleosomes purified from HeLa cells^12 were incubated with immunoprecipitated PRK1 proteins (FIG. 2a) or 1 μg purified recombinant PRK1 (FIG. 2b, c; ProQinase GmbH) for 0 to 10 min (FIG. 2c) or 20 min (FIG. 2a, b) at 30° C. in kinase buffer containing 20 mM Tris-HCl pH 7.5, 20 μM ATP, 8 mM MgCl2, and 5 μCi (γ-^32P) ATP. The reaction mixture was analysed by SDS-PAGE followed by autoradiography or Western blotting using antibodies as indicated.
# [5] = R1881 210 min, Ro318220 1×10^−5 M 60 min before R1881, stealth RNAi three days before harvesting, FIG. 3a, b
Compound,"down-regulation of endogenous PRK1 ([1]; FIG. 1a, 2d right panels)",levels of endogenous AR ([1]; FIG. 2d right panel),ligand-induced phosphorylation of H3T11 at AREs of PSA and KLK2 promoters [2],"ligand-induced acetylation of H3K9/K14 [2, 5]","ligand-induced demethylation of tri-, di-, and monomethyl H3K9 [2, 5]",S5-P CTD pol II at the promoters of PSA and KLK2 ([2]; R1881 210 min),recruitment of RNA polymerase II (α-NTD pol II) ([2]; R1881 210 min),ligand-induced expression of AR-dependent reporters [3],"androgen-induced expression of endogenous AR target genes (PSA, KLK2) [4]","phosphorylation of GST-H3 1-44 by PRK1 (PRK1; immunoprecipitated Myc-PRK1, 20 min at 30° C., FIG. 2a)","phosphorylation of nucleosomes at H3T11 by PRK1 (PRK1; nucleosomes from HeLa cells, recombinant PRK1, 0 to 10 min, Western blot α-phosphoH3T11, FIG. 2c)"
"5′-GAAAGUCCUAGAUCCACACGCAAAU-3′ (siRNA; Stealth RNAi from Invitrogen, chemistry not given here) [siRNA directed against PRK1]",depletion is specific,does not affect,blocked,blocked,severely impaired,loss,not affected,–,–,–,–
Cn1cc(C2=C(c3cn(CCCSC(=N)N)c4ccccc34)C(=O)NC2=O)c2ccccc21 [Ro318220],–,–,efficiently blocks,–,loss,loss,not affected,severely reduce; also recorded: strong decrease,reduce expression; also recorded: severely impedes,completely blocks,blocked
